In one series the test system is Botrytis cinerea. The series can be described thus: Activity against grey mold in the microtiterplate test. Conditions: 7 days after inoculation; for Growth (%) at 0.5 pm: comparative microtest Example 3. Type of series: cell-based.
The next series deals with Pyrenophora teres. The series can be described thus: Activity against net blotch on barley in the microtiter test. Particulars: comparative microtest Example 1, 7 days after inoculation. Type of series: cell-based. As to the method:
The stock solutions were mixed according to the ratio, pipetted onto a micro titer plate (MTP) and diluted with water to the stated concentrations. A spore suspension of Pyrenophora teres in an aqueous biomalt or yeast-bactopeptone-glycerine solution was then added. The plates were placed in a water vapor-saturated chamber at a temperature of 18° C. Using an absorption photometer, the MTPs were measured at 405 nm 7 days after the inoculation.

The next series relates to Alternaria solani. The series is described as follows: Activity against early blight, microtiter test. Type of series: cell-based. Conditions: 7 days after inoculation; for Growth (%) at 0.000125 pm: comparative microtest Example 5; for Growth (%) at 0.5 pm: comparative microtest Example 2.
The subject of series [1] is Pyricularia oryzae. Type of series: cell-based. Conditions: 7 days after inoculation.
The test system of series [2] is Septoria tritici. The series is described as follows: Preventative control of leaf blotch on wheat (comparative green house test). Type of series: in vivo. Conditions: % diseased leaf area after 4 weeks, untreated control 90. How it is done: (§1) The spray solutions were prepared in several steps: The stock solution were prepared: a mixture of acetone and/or dimethylsulfoxide and the wetting agent/emulsifier Wettol, which is based on ethoxylated alkylphenoles, in a relation (volume) solvent-emulsifier of 99 to 1 was added to 25 mg of the compound to give a total of 5 ml. Water was then added to total volume of 100 ml. This stock solution was diluted with the described solvent-emulsifier-water mixture to the given concentration. Leaves of pot-grown wheat seedling were sprayed to run-off with an aqueous suspension of the active compound or their mixture, prepared as described. The plants were allowed to air-dry. At the following day the plants were inoculated with an aqueous spore suspension of Septoria tritici. […] After 4 days the plants were transferred to a chamber with 18-22° C. and a relative humidity close to 70%. After 4 weeks the extent of fungal attack on the leaves was visually assessed as % diseased leaf area.

Series [3] deals with Pyricularia oryzae. Type of series: in vivo. Conditions: rice sprayed seven days before inoculation, % diseased leaf area after 6 days, untreated control 90.
Another series relates to Fusarium culmorum. The series is described as follows: Control of culm rot on pearl millet (comparative green house test). Particulars: pearl millet sprayed one day before inoculation, % diseased leaf area after 6 days. Type of series: in vivo. As to the method: The spray solutions were prepared in several steps:
The stock solution were prepared: a mixture of acetone and/or dimethylsulfoxide and the wetting agent/emulsifier Wettol, which is based on ethoxylated alkylphenoles, in a relation (volume) solvent-emulsifier of 99 to 1 was added to 25 mg of the compound to give a total of 5 ml.
Water was then added to total volume of 100 ml.
This stock solution was diluted with the described solvent-emulsifier-water mixture to the given concentration.
Pot-grown pearl millet seedlings with 2-3 leaves were sprayed to run-off with an aqueous suspension of the compound prepared as described. The plants were allowed to air-dry. At the following day the plants were inoculated with an spore suspension of Fusarium culmorum in a 2% aqueous malt solution. Then the trial plants were immediately transferred to a humid chamber. After 6 days at 23-25° C. and a relative humidity close to 100% the extent of fungal attack on the leaves was visually assessed as % diseased leaf area.

Series [4] relates to Septoria tritici. The series can be described thus: Curative control of leaf blotch on wheat (comparative green house test). Conditions: wheat sprayed seven days after inoculation, % diseased leaf area after 4 weeks, untreated control 90. Type of series: in vivo. As to the method: as §1, with “were” for “were sprayed to run-off with an aqueous suspension of the active compound or their mixture, prepared as described. The plants were allowed to air-dry. At the following day the plants were”, “70%. Seven days after inoculation the plants were sprayed to run-off with an aqueous suspension of the active compound or their mixture, prepared as described. Then the plants were transferred back to the chamber with 18-22° C. and a relative humidity close to 70%.” for “70%.”

For another series, the system named is Phytophthora infestans. Type of series: cell-based. Conditions: 32 ppm; 405 nm, 7 days after inoculation; compound-free control = 100%.
In series [5] the test system is Septoria tritici. The series can be described thus: Activity against leaf blotch on wheat, microtiter test. Type of series: cell-based. Particulars: 32 ppm; 405 nm, 7 days after inoculation; compound-free control = 100%.
The subject of a further series is Leptosphaeria nodorum. The series can be described thus: Activity against wheat leaf spots, microtiter test. Type of series: cell-based. Conditions: 32 ppm; 405 nm, 7 days after inoculation; compound-free control = 100%.
Where [6] appears, read: comparative microtest Example 7.
[7] abbreviates: comparative microtest Example 4.
The mark [8] stands for this setting: 32 ppm, 405 nm, compound-free control = 100%.

These results are taken from patent publication US9173402B2, “Fungicidal alkyl-substituted 2[2-chloro-4-(4-chioro-phenoxy)-phenyl]-1[1,2,4]triazol-1-yl-ethanol compounds” (BASF SE, priority 2011, dated 2015).

What is called melting point is the temperature, or range, at which the solid turns liquid.

Values joined by “and” are separate entries in the source; they are usually repeats but may differ in a detail not shown here. Identical values can stand only once. Like-named read-outs stand apart in the source and are kept apart here.

As to `OC(/C=C/c1ccccc1)(Cn1cncn1)c1ccc(Oc2ccc(Cl)cc2)cc1Cl` (stereo not shown) [drawing 13, reference compound], the “Growth (%) at 0.5 pm” value in the series on Botrytis cinerea came to 77%.

Regarding `CCCC(Cn1cncn1)(OC)c1ccc(Oc2ccc(Cl)cc2)cc1Cl` (stereo not shown) [drawing 9], the “Growth (%) at 8 pm” value in the series with Pyrenophora teres turned out to be 77%.

Turning to `CCC(Cn1cncn1)(OC)c1ccc(Oc2ccc(Cl)cc2)cc1Cl` (stereo not shown) [drawing 18, reference compound], in the series with Alternaria solani, the “Growth (%) at 0.000125 pm” value stood at 83%.

`OC(/C=C/c1ccccc1)(Cn1cncn1)c1ccc(Oc2ccc(Cl)cc2)cc1Cl` (stereo not shown) [drawing 11, reference compound]: in the series on Alternaria solani, the “Growth (%) at 0.5 pm” value turned out to be 91%.

`CCC(O)(Cn1cncn1)c1ccc(Oc2ccc(Cl)cc2)cc1Cl` (stereo not shown) [Compound I-1, 2-[2-chloro-4-(4-chlorophenoxy)phenyl]-1-(1,2,4-triazol-1-yl)butan-2-ol] had a melting point of 140 to 142 °C. The “Growth (%) at 0.5 pm” value with Pyricularia oryzae [1] (setting [6]) was 15%. The “Growth (%) at 0.000125 pm” value with Alternaria solani worked out at 1%. Moreover, the “Growth (%) at 8 pm” value in the series on Pyrenophora teres is reported as 13%. Besides, the “Disease (%) at 150 ppm” value in the series on Septoria tritici [2] came to 10%. Also, the “Disease (%) at 250 ppm” value in the series on Pyricularia oryzae [3] stood at 20%. In addition, the “Disease (%) at 16 ppm” value in the series with Fusarium culmorum (untreated control 90, listed as Table 1, 1) was 0% and 1%. For the same compound, the “Disease (%) at 16 ppm” value with Septoria tritici [4] is 40%.

In turn, `C=CC(O)(Cn1cncn1)c1ccc(Oc2ccc(Cl)cc2)cc1Cl` (stereo not shown) [Compound I-10] returned a melting point of 119 °C. The “Growth (%) at 0.5 pm” value with Botrytis cinerea is listed as 0%. For the same compound, in the series on Alternaria solani, the “Growth (%) at 0.5 pm” value is on record as 0%.

For `CC(O)(Cn1cncn1)c1ccc(Oc2ccc(Cl)cc2)cc1Cl` (stereo not shown) [drawing 29, reference compound], the “Disease (%) at 16 ppm” value in the series with Fusarium culmorum (untreated control 90) is reported as 25%.

As for `CC(O)(Cn1cncn1)c1ccc(Oc2ccc(Cl)cc2)cc1Cl` (stereo not shown) [drawing 6], the “Growth (%) at 8 pm” value in the series on Pyrenophora teres is 62%.

Consider `CCCC(Cn1cncn1)(OC)c1ccc(Oc2ccc(Cl)cc2)cc1Cl` (stereo not shown) [drawing 15, reference compound], for which the “Growth (%) at 0.5 pm” value in the series on Pyricularia oryzae [1] (setting [7]) was found to be 30%.

In the case of `OC(Cn1cncn1)c1ccc(Oc2ccc(Cl)cc2)cc1Cl` (stereo not shown) [drawing 32, reference compound], the “Disease (%) at 16 ppm” value with Fusarium culmorum (untreated control 90) is 30%.

Consider `CCCC(O)(Cn1cncn1)c1ccc(Oc2ccc(Cl)cc2)cc1Cl` (stereo not shown) [Compound I-2, 2-[2-chloro-4-(4-chloro-phenoxy)-phenyl]-1-[1,2,4]triazol-1-yl-pentan-2-ol], for which the melting point fell in the range of 132 to 135 °C. Moreover, in the series on Pyricularia oryzae [1] (setting [7]), the “Growth (%) at 0.5 pm” value is 4%. In addition, the “Growth (%) at 8 pm” value in the series with Pyrenophora teres turned out to be 57%.

For `OC(Cn1cncn1)c1ccc(Oc2ccc(Cl)cc2)cc1Cl` (stereo not shown) [drawing 27, reference compound], in the series with Pyricularia oryzae [3], the “Disease (%) at 250 ppm” value turned out to be 60%.

Consider `OC(Cn1cncn1)c1ccc(Oc2ccc(Cl)cc2)cc1Cl` (stereo not shown) [drawing 24], for which the “Disease (%) at 150 ppm” value in the series on Septoria tritici [2] came out at 60%.

`CC#CC(O)(Cn1cncn1)c1ccc(Oc2ccc(Cl)cc2)cc1Cl` (stereo not shown) [Compound I-8, 2-[2-chloro-4-(4-chlorophenoxy)phenyl]-1-(1,2,4-triazol-1-yl)pent-3-yn-2-ol]: the melting point came to 139 °C.

Regarding `CCC(Cn1cncn1)(OC)c1ccc(Oc2ccc(Cl)cc2)cc1Cl` (stereo not shown) [drawing 34, reference compound], the “Disease (%) at 16 ppm” value in the series with Septoria tritici [4] worked out at 70%.

Take `CCC(Cn1cncn1)(OC)c1ccc(Oc2ccc(Cl)cc2)cc1Cl` (stereo not shown) [drawing 7]: the “Growth (%) at 8 pm” value in the series with Pyrenophora teres came to 39%.

In the case of `CC(O)(Cn1cncn1)c1ccc(Oc2ccc(Cl)cc2)cc1Cl` (stereo not shown) [drawing 21, reference compound], in the series with Pyricularia oryzae [1] (setting [6]), the “Growth (%) at 0.5 pm” value turned out to be 82%.

Compound `OC(Cn1cncn1)(c1ccc(Oc2ccc(Cl)cc2)cc1Cl)C1CC1` (stereo not shown) [Compound I-9] showed a melting point of 110 °C. Further, the “Growth (%) at 0.000125 pm” value in the series on Alternaria solani worked out at 1%. Also, the “Disease (%) at 16 ppm” value in the series on Fusarium culmorum (untreated control 90) is 5%.

Take `CCC(Cn1cncn1)(OC)c1ccc(Oc2ccc(Cl)cc2)cc1Cl` (stereo not shown) [drawing 22, reference compound]: the “Growth (%) at 0.5 pm” value with Pyricularia oryzae [1] (setting [6]) worked out at 47%.

On to `C#CCC(O)(Cn1cncn1)c1ccc(Oc2ccc(Cl)cc2)cc1Cl` (stereo not shown) [Compound I-11, 2-[2-chloro-4-(4-chloro-phenoxy)-phenyl]-1-[1,2,4]triazol-1-yl-pent-4-yn-2-ol], for which the “relative growth of the pathogen” value in the series with Phytophthora infestans worked out at 12%; in the series with Botrytis cinerea (setting [8]), 0%; with Pyricularia oryzae [1] (setting [8]), 0%; in the series on Septoria tritici [5], 9%; in the series on Alternaria solani (setting [8]), 2%; in the series with Leptosphaeria nodorum, 2%.

As for `CC(F)C(O)(Cn1cncn1)c1ccc(Oc2ccc(Cl)cc2)cc1Cl` (stereo not shown), the “Disease (%) at 150 ppm” value with Septoria tritici [2] worked out at 50%.

Consider `CC(O)(Cn1cncn1)c1ccc(Oc2ccc(Cl)cc2)cc1Cl` (stereo not shown) [drawing 17, reference compound], for which the “Growth (%) at 0.000125 pm” value in the series with Alternaria solani turned out to be 45%.
